Assay results as given in PubChem BioAssay (NCI).
Values joined by “and” are separate entries in the source; they are usually repeats but may differ in a detail not shown here. Equal values may be shown once.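 Cultured in 96-well plates, cells were exposed to test compound for 48 hours across five concentrations. GI50 is the concentration that inhibits growth by half. TGI denotes the concentration required for complete inhibition of growth.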

Experiments:
Experiment in all cases: NCI tumour cell line growth inhibition, 48 h
SNB-78 CNS = system: SNB-78 CNS
M19-MEL melanoma = system: M19-MEL melanoma
KM20L2 colon = system: KM20L2 colon
DMS 273 small cell lung = system: DMS 273 small cell lung
MDA-MB-231 breast = system: MDA-MB-231 breast
NCI/ADR-RES ovarian = system: NCI/ADR-RES ovarian
DU-145 prostate = system: DU-145 prostate
HS 578T breast = system: HS 578T breast
T-47D breast = system: T-47D breast
BT-549 breast = system: BT-549 breast

Structure (SMILES): Cc1ccc(-c2cc(-c3ccco3)c(C#N)c(=O)n2C2OC(OC(=O)c3ccccc3)C(OC(=O)c3ccccc3)C2OC(=O)c2ccccc2)cc1 (centres undefined)
- TGI (SNB-78 CNS): > 100 µM
- TGI (M19-MEL melanoma): > 100 µM
- TGI (KM20L2 colon): > 100 µM
- TGI (DMS 273 small cell lung): > 100 µM

Structure (SMILES): CC(=O)NC(CCCCNC(=O)NCCCl)C(=O)NCc1ccccc1 (centres undefined)
- TGI (M19-MEL melanoma): > 100 µM
- TGI (KM20L2 colon): > 100 µM
- TGI (DMS 273 small cell lung): > 100 µM

Structure (SMILES): NCCCCNc1ccc2c(=O)[nH][nH]c(=O)c2c1
- TGI (SNB-78 CNS): > 100 µM
- TGI (M19-MEL melanoma): > 100 µM
- TGI (KM20L2 colon): > 100 µM
- TGI (DMS 273 small cell lung): > 100 µM

Structure (SMILES): CCOP(=O)(OCC)OC(C#N)c1ccc(-c2ccccc2)cc1 (centres undefined)
- TGI (SNB-78 CNS): > 100 µM
- TGI (M19-MEL melanoma): 50.3 µM
- TGI (KM20L2 colon): > 100 µM
- TGI (DMS 273 small cell lung): 27.5 µM

Structure (SMILES): CN1CC[C@]2(C)c3ccc(O)cc3CC3CCCC1C32C (some centres undefined)
- TGI (SNB-78 CNS): > 100 µM
- TGI (M19-MEL melanoma): > 100 µM
- TGI (KM20L2 colon): > 100 µM

Structure (SMILES): COC1C2C=CC(C2)[C@H]1[N+](=O)[O-] (some centres undefined)
- TGI (SNB-78 CNS): > 100 µM
- TGI (M19-MEL melanoma): > 100 µM
- TGI (KM20L2 colon): > 100 µM
- TGI (DMS 273 small cell lung): > 100 µM

Structure (SMILES): CC(=O)OCC(OC(C)=O)C(OC(C)=O)C(OC(C)=O)C(=O)CNn1c(-c2ccccc2Cl)nc2ccccc2c1=O (centres undefined)
- TGI (SNB-78 CNS): > 100 µM
- TGI (M19-MEL melanoma): > 100 µM
- TGI (KM20L2 colon): > 100 µM
- TGI (DMS 273 small cell lung): > 100 µM

Structure (SMILES): COC(=O)C(CC(=O)Nc1ccc(C)cc1)C(=O)C(=O)Nc1ccccc1C(C)C (centres undefined)
- TGI (SNB-78 CNS): > 100 µM
- TGI (M19-MEL melanoma): > 100 µM
- TGI (KM20L2 colon): > 100 µM
- TGI (DMS 273 small cell lung): > 100 µM

Structure (SMILES): COC(=O)C1=C(C(=O)OC)SC(=CC#CC=C2SC(C(=O)OC)=C(C(=O)OC)S2)S1
- TGI (SNB-78 CNS): 48.6 µM
- TGI (M19-MEL melanoma): > 100 µM
- TGI (KM20L2 colon): 71.6 µM
- TGI (DMS 273 small cell lung): 38.4 µM

Structure (SMILES): COc1ccc(/C=C\c2cc(OC)c(O[Si](C)(C)C(C)(C)C)c(OC)c2)cc1
- TGI (M19-MEL melanoma): > 100 µM
- TGI (KM20L2 colon): > 100 µM
- TGI (DMS 273 small cell lung): > 100 µM

Structure (SMILES): CC[O-].CC[O-].O=S(=O)([O-])c1ccc([O-])c2ncccc12.O=S(=O)([O-])c1ccc([O-])c2ncccc12.[Ti+4]
- GI50 (SNB-78 CNS): > 100 µM
- TGI (SNB-78 CNS): > 100 µM
- GI50 (M19-MEL melanoma): > 100 µM
- TGI (M19-MEL melanoma): > 100 µM
- GI50 (KM20L2 colon): 39.7 µM
- TGI (KM20L2 colon): > 100 µM
- GI50 (DMS 273 small cell lung): 78.1 µM
- TGI (DMS 273 small cell lung): > 100 µM

Structure (SMILES): CCOC(=O)c1s/c(=N\Nc2nc3ccccc3cc2C2OCCO2)n(Cc2ccccc2)c1C
- TGI (SNB-78 CNS): > 100 µM
- TGI (M19-MEL melanoma): > 100 µM
- TGI (KM20L2 colon): > 100 µM
- TGI (DMS 273 small cell lung): > 100 µM

Structure (SMILES): COc1ccc(Cn2c3c(cc(OS(=O)(=O)C(F)(F)F)c2=O)Cc2ccccc2-3)cc1
- GI50 (MDA-MB-231 breast): 5.26 µM
- TGI (MDA-MB-231 breast): > 100 µM
- GI50 (NCI/ADR-RES ovarian): 3.03 µM
- TGI (NCI/ADR-RES ovarian): 50 µM and > 100 µM
- GI50 (DU-145 prostate): 17.1 µM
- TGI (DU-145 prostate): 50 µM and > 100 µM
- GI50 (HS 578T breast): > 100 µM
- TGI (HS 578T breast): > 100 µM
- GI50 (T-47D breast): 16.6 µM
- TGI (T-47D breast): 50 µM and > 100 µM
- GI50 (BT-549 breast): 19.9 µM
- TGI (BT-549 breast): 50 µM and > 100 µM

Structure (SMILES): Cc1cc(C)c(C(=O)c2no[n+]([O-])c2C(=O)c2c(C)cc(C)c(Br)c2C)c(C)c1Br
- TGI (SNB-78 CNS): 70.8 µM
- TGI (M19-MEL melanoma): 25.7 µM
- TGI (KM20L2 colon): 32.9 µM
- TGI (DMS 273 small cell lung): 45.1 µM

Structure (SMILES): COc1ccccc1/C=C/C(=O)c1ccccc1
- GI50 (MDA-MB-231 breast): 14.4 µM
- TGI (MDA-MB-231 breast): 35.2 µM
- GI50 (NCI/ADR-RES ovarian): 5.75 µM
- TGI (NCI/ADR-RES ovarian): > 38.2 µM
- GI50 (DU-145 prostate): 5.23 µM
- TGI (DU-145 prostate): 16.3 µM
- GI50 (HS 578T breast): 12.1 µM
- TGI (HS 578T breast): > 25.5 µM
- GI50 (T-47D breast): 16.8 µM
- TGI (T-47D breast): 63.3 µM
- GI50 (BT-549 breast): 10.2 µM
- TGI (BT-549 breast): 23.9 µM

Structure (SMILES): Cn1c2c(c3ccc(Cl)c(Cl)c31)C(C#N)C1(CCNCC1)NC2=O (centres undefined)
- GI50 (MDA-MB-231 breast): 1.54 µM
- TGI (MDA-MB-231 breast): 3.46 µM
- GI50 (NCI/ADR-RES ovarian): 3.72 µM
- TGI (NCI/ADR-RES ovarian): 12.2 µM
- GI50 (DU-145 prostate): 1.56 µM
- TGI (DU-145 prostate): 3.03 µM
- GI50 (HS 578T breast): 1.13 µM
- TGI (HS 578T breast): 3.61 µM
- GI50 (T-47D breast): 1.72 µM
- TGI (T-47D breast): 3.94 µM
- GI50 (BT-549 breast): 3.04 µM
- TGI (BT-549 breast): 16.7 µM
